Experiment [1] concerns the target P70S6K (T412E mutant) (Homo sapiens (Human), UniProt P23443, T412E). Briefly: P70S6K enzyme assay. Conditions: 24 μM ATP. It counts as biochemical. The procedure:
P70S6K inhibitor compounds were diluted and plated in 96 well plates. A reaction mixture including the following components was then added to the compound plate to initiate the enzyme reaction; P70S6K (3 nM, T412E mutant, Millipore) was mixed with 24 μM ATP in an assay buffer containing 100 mM Hepes (pH 7.5), 5 mM MgCl2, 1 mM DTT, 0.015% Brij and 1 μM of the substrate peptide FITC-AHA-AKRRRLSSLRA-OH (derived from the S6 ribosomal protein sequence, FITC=fluorescein isothiocyanate, AHA=6-aminohexanoic acid). The reaction was incubated for 90 min at 25° C., before the addition of 10 mM EDTA to stop the reaction. The proportion of substrate and product (phosphorylated) peptide was analysed on a Caliper Life Sciences Lab Chip 3000, using a pressure of −1.4 psi, and upstream and downstream voltages of −3000 and −700 respectively. Product peaks were resolved before substrate peaks on the resulting chromatograms.

For experiment [2], the target named is His-AKT (Full Length) (Homo sapiens (Human), UniProt P31749). Briefly: AKT enzyme assay. It counts as biochemical. The settings on record: 160 uM ATP. The procedure:
A TTP Mosquito liquid handling instrument was used to place 125 nl of the appropriate concentration of inhibitor in 100% DMSO (for a dose response curve calculation) into each well of a 384-well plate. To this reaction components were added to a final volume of 12.5 μl: • 0.1 ng/μl His-AKT (Full Length), (Invitrogen, Part # P2999, Lot #641228C). • 160 uM ATP (Fluka, 02055) • 1 mM DTT (Sigma, D0632) • 1 mM MgCl2 (Sigma, M1028) • 1 μM substrate peptide (sequence FITC-AHA-GRPRTSSFAEG-NH2), synthesized by Tufts Peptide Synthesis service. • 100 mM HEPES pH 7.5 (Calbiochem, 391338) • 0.015% Brij-35 (Sigma, B4184)
The reaction was incubated for 90 min at 25 C., and then stopped by the addition of 70 μl of Stop buffer (100 mM HEPES pH 7.5, 0.015% Brij-35, 10 mM EDTA (Sigma, E7889)).
The plate was read on a Caliper LC 3000 in an Off-Chip mobility shift assay format, using the following parameters for a 12-sipper chip: screening pressure −2.3 psi, upstream voltage −500, and downstream voltage −3000. These conditions caused unphosphorylated substrate and phosphorylated product peptide to resolve as separate peaks allowing direct measurement of percentage of conversion of substrate to product.
The percent conversion was plotted against concentration of inhibitor to produce a sigmoidal dose response curve, from which an IC50 was calculated.

As a reminder, the pIC50 is the IC50 on a negative log10 scale, so that one unit is a factor of ten. A lower pIC50 goes with a high IC50.

pIC50: −log10 of the molar value.

Sequence of His-AKT (Full Length) (P31749 whole entry): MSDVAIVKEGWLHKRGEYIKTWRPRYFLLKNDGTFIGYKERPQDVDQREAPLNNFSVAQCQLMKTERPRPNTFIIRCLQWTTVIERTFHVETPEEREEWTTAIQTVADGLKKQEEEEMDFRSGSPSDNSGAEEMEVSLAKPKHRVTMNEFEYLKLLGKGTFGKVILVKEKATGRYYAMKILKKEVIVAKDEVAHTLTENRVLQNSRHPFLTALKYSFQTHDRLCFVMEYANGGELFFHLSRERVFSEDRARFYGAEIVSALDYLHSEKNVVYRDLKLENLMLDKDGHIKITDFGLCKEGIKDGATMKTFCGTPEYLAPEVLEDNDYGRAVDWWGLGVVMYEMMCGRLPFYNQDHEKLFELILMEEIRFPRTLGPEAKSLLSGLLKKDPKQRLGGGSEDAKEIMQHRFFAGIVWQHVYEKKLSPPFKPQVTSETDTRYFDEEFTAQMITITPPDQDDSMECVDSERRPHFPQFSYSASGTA
Sequence of P70S6K (T412E mutant) (P23443 whole entry T412E): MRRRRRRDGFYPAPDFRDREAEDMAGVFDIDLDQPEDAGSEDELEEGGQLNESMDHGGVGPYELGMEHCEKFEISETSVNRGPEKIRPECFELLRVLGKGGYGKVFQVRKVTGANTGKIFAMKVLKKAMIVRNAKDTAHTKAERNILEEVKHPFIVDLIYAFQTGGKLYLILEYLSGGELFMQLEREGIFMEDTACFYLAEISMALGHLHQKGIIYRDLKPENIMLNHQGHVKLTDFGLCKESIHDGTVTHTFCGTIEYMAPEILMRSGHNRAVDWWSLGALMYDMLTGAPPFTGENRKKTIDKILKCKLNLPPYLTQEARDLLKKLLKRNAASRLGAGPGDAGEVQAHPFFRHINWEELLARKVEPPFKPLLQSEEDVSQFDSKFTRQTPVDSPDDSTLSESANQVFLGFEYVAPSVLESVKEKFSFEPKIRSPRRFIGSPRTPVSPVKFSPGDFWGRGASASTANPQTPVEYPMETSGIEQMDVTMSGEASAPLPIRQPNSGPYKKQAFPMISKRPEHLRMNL

For `CC(C)c1c(N)ncnc1N1CC[C@@H](c2nc(-c3ccc(F)c(C(F)(F)F)c3)c[nH]2)[C@@H](F)C1` (racemic) [Compound 26, 6-{cis-3-Fluoro-4-[4-(4-fluoro-3-trifluoromethyl-phenyl)-1H-imidazol-2-yl]-piperidin-1-yl}-5-isopropyl-pyrimidin-4-ylamine], the pIC50 in experiment [1] is 8.00 to 9.00; in experiment [2], under 8.00.
The matching figures for `CC(C)c1c(N)ncnc1N1CC[C@@H](c2nc(-c3ccc(F)c(C(F)(F)F)c3)cn2CCN)[C@@H](F)C1` (racemic) [Compound 33, 6-{cis-4-[1-(2-Amino-ethyl)-4-(4-fluoro-3-trifluoromethyl-phenyl)-1H-imidazol-2-yl]-3-fluoro-piperidin-1-yl}-5-isopropyl-pyrimidin-4-ylamine]: 8.00 to 9.00 and 8.00 to 9.00.
Regarding `NCCn1cc(-c2ccc(F)c(C(F)(F)F)c2)nc1[C@@H]1CCN(c2ncnc(N)c2Cl)C[C@@H]1F` (racemic) [Compound 36], the negative logarithm of the IC50 (pIC50) in experiment [1] and in experiment [2] was 8.00 to 9.00 each time.
For the molecule `Cc1cc(-c2cn(CCNC(C)C)c([C@@H]3CCN(c4ncnc(N)c4C(C)C)C[C@@H]3F)n2)ccc1F` (racemic) [Compound 37, 6-{cis-3-Fluoro-4-[4-(4-fluoro-3-methyl-phenyl)-1-(2-isopropylamino-ethyl)-1H-imidazol-2-yl]-piperidin-1-yl}-5-isopropyl-pyrimidin-4-ylamine], the pIC50 in experiment [1] and in experiment [2] was 8.00 to 9.00 each time.
Take `CNCCn1cc(-c2ccc(F)c(C)c2)nc1[C@@H]1CCN(c2ncnc(N)c2C(C)C)C[C@@H]1F` (racemic) [Compound 38, 6-{cis-3-Fluoro-4-[4-(4-fluoro-3-methyl-phenyl)-1-(2-methylamino-ethyl)-1H-imidazol-2-yl]-piperidin-1-yl}-5-isopropyl-pyrimidin-4-ylamine]: the negative-log IC50 (pIC50) in experiment [1] and in experiment [2] was 8.00 to 9.00 each time.
Regarding `Cc1cc(-c2cn(CCN3CCC3)c([C@@H]3CCN(c4ncnc(N)c4OC(C)C)C[C@@H]3F)n2)ccc1F` (racemic) [Compound 39, 6-{cis-4-[1-(2-Azetidin-1-yl-ethyl)-4-(4-fluoro-3-methyl-phenyl)-1H-imidazol-2-yl]-3-fluoro-piperidin-1-yl}-5-isopropoxy-pyrimidin-4-ylamine], the pIC50 in experiment [1] and in experiment [2] was 8.00 to 9.00 throughout.
On to `Cc1cc(-c2cn(CC3CNC3)c([C@@H]3CCN(c4ncnc(N)c4C(C)C)C[C@@H]3F)n2)ccc1F` (racemic) [Compound 41, 6-{cis-4-[1-Azetidin-3-ylmethyl-4-(4-fluoro-3-methyl-phenyl)-1H-imidazol-2-yl]-3-fluoro-piperidin-1-yl}-5-isopropyl-pyrimidin-4-ylamine], for which the pIC50 in experiment [1] and in experiment [2] was 8.00 to 9.00 throughout.
As for `N#Cc1c[nH]c2ncnc(N3CC[C@@H](c4nc(-c5ccc(F)c(C(F)(F)F)c5)cn4CCN4CCC4)[C@@H](F)C3)c12` (racemic) [Compound 42], the pIC50 in experiment [1] and in experiment [2] was 8.00 to 9.00 each time.
Consider `N#Cc1c[nH]c2ncnc(N3CC[C@@H](c4nc(-c5ccnc(C(F)(F)F)c5)cn4CCN4CCC4)[C@@H](F)C3)c12` (racemic) [Compound 43], for which the pIC50 in experiment [1] and in experiment [2] was 8.00 to 9.00 each time.
Turning to `Cc1cc(-c2cn(CCN3CCC3)c([C@@H]3CCN(c4ncnc(N)c4C(N)=O)C[C@@H]3F)n2)ccc1F` (relative stereo) [Compound 19, 4-Amino-6-{cis-4-[1-(2-azetidin-1-yl-ethyl)-4-(4-fluoro-3-methyl-phenyl)-1H-imidazol-2-yl]-3-fluoro-piperidin-1-yl}-pyrimidine-5-carboxylic acid amide], the pIC50 in experiment [1] and in experiment [2] was 8.00 to 9.00 throughout.
For the molecule `NC(=O)c1c(N)ncnc1N1CC[C@@H](c2nc(-c3ccc(F)c(C(F)(F)F)c3)cn2CCN2CCC2)[C@@H](F)C1` (single isomer, unassigned) [Compound 3], the negative logarithm of the IC50 (pIC50) in experiment [1] and in experiment [2] was 8.00 to 9.00 throughout.
Take `NC(=O)c1c(N)ncnc1N1CC[C@H](c2nc(-c3ccc(F)c(C(F)(F)F)c3)cn2CCN2CCC2)[C@H](F)C1` (single isomer, unassigned) [Compound 4]: the negative-log IC50 (pIC50) in experiment [1] is 8.00 to 9.00; in experiment [2] it was under 8.00.
The matching figures for `CN(C)CCn1cc(-c2ccc(F)c(C(F)(F)F)c2)nc1[C@H]1CCN(c2ncnc(N)c2C(N)=O)C[C@H]1F` (single isomer, unassigned) [Compound 20]: 8.00 to 9.00 and 8.00 to 9.00.
Take `CN(C)CCn1cc(-c2ccc(F)c(C(F)(F)F)c2)nc1[C@@H]1CCN(c2ncnc(N)c2C(N)=O)C[C@@H]1F` (single isomer, unassigned) [Compound 21]: the pIC50 in experiment [1] is 8.00 to 9.00; in experiment [2], under 8.00.
The matching figures for `CCOc1c(N)ncnc1N1CC[C@@H](c2nc(-c3ccc(F)c(C(F)(F)F)c3)cn2CCN2CCC2)[C@@H](F)C1` (single isomer, unassigned) [Compound 22]: 8.00 to 9.00 and 8.00 to 9.00.
The matching figures for `CCOc1c(N)ncnc1N1CC[C@H](c2nc(-c3ccc(F)c(C(F)(F)F)c3)cn2CCN2CCC2)[C@H](F)C1` (single isomer, unassigned) [Compound 23]: 8.00 to 9.00 and 8.00 to 9.00.
For the molecule `Cc1cc(-c2cn(CCN3CCC3)c([C@@H]3CCN(c4ncnc(N)c4C(N)=O)C[C@@H]3F)n2)ccc1F` (single isomer, unassigned) [Compound 27], the negative logarithm of the IC50 (pIC50) in experiment [1] and in experiment [2] was 8.00 to 9.00 each time.
Regarding `Cc1cc(-c2cn(CCN3CCC3)c([C@H]3CCN(c4ncnc(N)c4C(N)=O)C[C@H]3F)n2)ccc1F` (single isomer, unassigned) [Compound 28], the negative logarithm of the IC50 (pIC50) in experiment [1] and in experiment [2] was under 8.00 throughout.
Turning to `CN(C)CCn1cc(-c2ccc(F)c(C(F)(F)F)c2)nc1[C@@H]1CCN(c2ncnc(N)c2Cl)C[C@@H]1F` (single isomer, unassigned) [Compound 29], the pIC50 in experiment [1] and in experiment [2] was 8.00 to 9.00 throughout.
For `CN(C)CCn1cc(-c2ccc(F)c(C(F)(F)F)c2)nc1[C@H]1CCN(c2ncnc(N)c2Cl)C[C@H]1F` (single isomer, unassigned) [Compound 30], the figures for the pIC50 in experiment [1] and in experiment [2] were 8.00 to 9.00 and under 8.00, respectively.
Consider `CC(C)c1c(N)ncnc1N1CC[C@H](c2nc(-c3ccc(F)c(C(F)(F)F)c3)cn2CCN(C)C)[C@H](F)C1` (single isomer, unassigned) [Compound 31], for which the results for the pIC50 in experiment [1] and in experiment [2] were 8.00 to 9.00 and under 8.00, respectively.
The matching figures for `CC(C)c1c(N)ncnc1N1CC[C@@H](c2nc(-c3ccc(F)c(C(F)(F)F)c3)cn2CCN(C)C)[C@@H](F)C1` (single isomer, unassigned) [Compound 32]: 8.00 to 9.00 and 8.00 to 9.00.
With `Cc1cc(-c2cn(CCN3CCC3)c([C@H]3CCN(c4ncnc(N)c4C(C)C)C[C@H]3F)n2)ccc1F` (single isomer, unassigned) [Compound 34], the pIC50 in experiment [1] was 8.00 to 9.00; in experiment [2] it was under 8.00.
Consider `Cc1cc(-c2cn(CCN3CCC3)c([C@@H]3CCN(c4ncnc(N)c4C(C)C)C[C@@H]3F)n2)ccc1F` (single isomer, unassigned) [Compound 35], for which the pIC50 in experiment [1] and in experiment [2] was 8.00 to 9.00 in each case.
For the molecule `N#Cc1c(N)ncnc1N1CC[C@@H](c2nc(-c3ccc(F)c(C(F)(F)F)c3)cn2CCN2CCC2)[C@@H](F)C1` (single isomer, unassigned) [Compound 40], the negative logarithm of the IC50 (pIC50) in experiment [1] and in experiment [2] was 8.00 to 9.00 in each case.
Consider `Cc1cc(-c2cn(CCN3CCC3)c(C3(O)CCN(c4ncnc(N)c4C#N)CC3)n2)ccc1F` [Compound 44, 4-Amino-6-{4-[1-(2-azetidin-1-yl-ethyl)-4-(4-fluoro-3-methyl-phenyl)-1H-imidazol-2-yl]-4-hydroxy-piperidin-1-yl}-pyrimidine-5-carbonitrile], for which the negative-log IC50 (pIC50) in experiment [1] and in experiment [2] was 8.00 to 9.00 throughout.
Consider `Cc1cc(-c2cn(CCN3CCC3)c(C3(O)CCN(c4ncnc(N)c4C(C)C)CC3)n2)ccc1F` [Compound 45, 1-(6-Amino-5-isopropyl-pyrimidin-4-yl)-4-[1-(2-azetidin-1-yl-ethyl)-4-(4-fluoro-3-methyl-phenyl)-1H-imidazol-2-yl]-piperidin-4-ol], for which the pIC50 in experiment [1] and in experiment [2] was 8.00 to 9.00 throughout.
